Data set [1] is described as follows: water adsorption (hygroscopicity) of crystal forms. It is filed as physicochemical. Particulars: dihydrochloride.
Data set [2] is described as follows: relative bioavailability of dissolved vs intact tablets and effect of food in healthy subjects. It is filed as in vivo, human. The text has this: The primary objectives of the study were: (1) to evaluate the relative bioavailability of tetrahydrobiopterin (BH4, sapropterin dihydrochloride) when administered after dissolution of tablet(s) in water or administered as intact tablet(s); (2) to compare the effect of food on the bioavailability of BH4 in healthy subjects. The secondary objective of the study was to assess the safety and tolerability of single oral doses of BH4 in healthy subjects.
This study was an open-label, randomized, three-treatment, six-sequence, three-period crossover study in which 30 subjects were to complete 3 single-dose dosing periods and were randomized to one of six sequence groups (Groups 1, 2, 3, 4, 5, and 6): […]
where all dosing groups received BH4 10 mg/kg orally as follows: a: administered after dissolution of tablet(s) in water given in fasting under fasting conditions b: administered as intact tablet(s) given in fasting under fasting conditions c: administered as intact tablet(s) given 30 minutes after beginning to ingest a high-calorie, high-fat meal in fed conditions Each subject received a single dose of 10 mg/kg of BH4 during each treatment period. A washout period of at least seven days separated each dose administration. A post-study assessment was performed 5-7 days after discharge of the third treatment period. Blood samples for Pharmacokinetic (PK) analysis were drawn at scheduled collection times during each study period: within 30 minutes prior to dose, and 0.5, 1.0, 1.5, 2.0, 2.5, 3.0, 3.5, 4.0, 5.0, 6.0, 8.0, 10.0, 12.0, 18.0, and 24.0 hours post-dose.
Blood (plasma) pharmacokinetic (PK) characteristics were assessed after each dose of study medication. All subjects remained seated in an upright position for 4 hours post-dose. The blood samples were drawn within 30 minutes prior to dose and at 0.5, 1.0, 1.5, 2.0, 2.5, 3.0, 3.5, 4.0, 5.0, 6.0, 8.0, 10.0, 12.0, 18.0, and 24.0 hours post dose. Samples were collected in appropriately labeled 6 mL K2-EDTA purple top Vacutainer® tubes. Blood samples were centrifuged at approximately 3000 rpm at 4° C. for 10 minutes. From the resulting plasma, exactly 1 mL was removed from each sample using a pipet, and placed into an aliquot tube containing 0.1% w/v dithioerythritol. The sample was capped and vortexed for approximately 10 seconds using a VWR Mini Vortexer at speed 6. After completion of these steps, the sample was flash frozen in an isopropyl/dry ice bath and placed in a −70° C. freezer pending analysis.
Pharmacokinetic (PK) analysis of plasma BH4 concentration-time data was performed using non-compartmental methods to obtain estimates of the following PK parameters: • Peak plasma concentration (Cmax) and time to peak concentration (Tmax), obtained directly from the data without interpolation; • λz, the apparent terminal elimination rate constant, determined by log-linear regression of the terminal plasma concentrations; • Area under the plasma concentration-time curve from time zero to the time of last measurable concentration [AUC(0-t)], calculated by the linear trapezoidal method; • The apparent elimination half-life (t½), calculated as 0.693/λz; • Area under the plasma concentration-time curve from time 0 to infinity [AUC(inf)] where AUC(inf)=AUC(0-t)+Ct/λz and Ct is the last measurable concentration. Estimation of Absorption Rate […]
Comparison of the pharmacokinetic parameters Cmax, AUC(0-t), and AUC(inf) for BH4 was conducted using an analysis of variance (ANOVA) model with sequence, subject within sequence, treatment, and period as the classification variables using the natural logarithms of the parameters as the dependent variables. The comparisons of interest were between the dissolved and intact tablet in the fasted state and the intact tablet in the fed and fasted states.

Details of data set [3]: species or system rats and monkeys. Particulars: rat, monkey, in vivo. The text has this:
Such variability in absorption of BH4 was also shown in a study described herein on the effect of food on the bioavailability of BH4 in healthy humans.

The nature of data set [4]: physchem. It is filed as physicochemical. From the text:
Although there is ample literature describing increased bioavailability in fed conditions, this food effect is typically seen with lipophilic (i.e., lipid soluble) water-insoluble drugs and not usually with high water soluble active substance such as BH4. The usual explanation for increases in bioavailability under fed conditions for lipophilic compounds is that high fat meals help solubilize the drug since “like dissolves like” and this makes it available for absorption. Another possible explanation is that high fat meals stimulate the secretion of bile acids which are natural bio-surfactants that help solubilize and emulsify the fats we eat to aid their digestion. These bile acids are also thought to solubilize water-insoluble compounds thereby making them available for absorption. […] Therefore the enhancement of its bioavailability by high fat, high-energy meals is not consistent with such known mechanism.

A short description of data set [5]: pharmacokinetics of sapropterin after a single oral administration in cynomolgus monkeys. It is filed as in vivo, female cynomolgus monkeys. Particulars: monkey, 10 mg/kg oral. Here is the method: A single dose of sapropterin (10 mg/kg) was administered orally to female cynomolgus monkeys (3/group) under fasting conditions.
The nature of data set [6]: safety and tolerability of single oral doses of BH4 in healthy subjects. It is filed as in vivo, human. Here is the method:
Safety was evaluated for all subjects who take at least one dose of BH4.
Safety was evaluated by recording the incidence of adverse events, changes in 12-lead ECG parameters, vital signs and physical examination results, and changes in baseline in laboratory test values.
In this study, an adverse event (AE) was defined as any untoward medical occurrence in a subject or clinical investigation subject administered BH4, at any dose, whether or not it has a causal relationship with the event. An AE can therefore be any unfavorable and unintended sign (including an abnormal laboratory finding), symptom, or disease temporally associated with the use of BH4, whether or not related to BH4. This definition included intercurrent illnesses or injuries and exacerbation (increase in frequency, severity or specificity) of pre-existing conditions.
A serious adverse event (SAE) was defined as any AE that has at least one of the following outcomes: […]

The nature of data set [7]: physchem. It is filed as physicochemical. Particulars: for Estimated t1/2 Based on t1/2 Obtained at pH 3 (Min) / half-life: buffer. On the procedure:
However, administration as a solid or semi-solid dosage form and/or with a high-fat meal may maximize bioavailability by increasing the residence time of BH4 in the acidic milieu of the stomach and upper gastrointestinal tract (GIT) where BH4 is chemically stable. […] At pH 3.1, which is within realm of the typical pH of the stomach in normal volunteers, the stability of BH4 at a concentration of 1 mg/mL is over 3 hours. The chemical stability of BH4 may further increase when the pH of the stomach drops below pH 3.1. Therefore prolonged stomach residence time provides intact drug to the stomach wall for absorption, whereas rapid emptying into the intestine degrades BH4 and is thus not available to be absorbed.
In general, the objective of this study was to evaluate the stability of BH4 in buffer solutions ranging in pH from pH 1 to 7 (See Table 15) and in the presence and absence of antioxidants and with or without inert gas in the reaction solutions (See Table 16).
The stability of BH4 is expected to be temperature-dependent. Therefore, the compound stability was evaluated at 2-8° C., 25° C., 30° C. and 37° C. to support the determination of predictive long-term shelf lives for the compound at different temperatures. Determination of the stability of the compound at the physiologic temperature of 37° C. provides data to support the estimation of the stability lifetime of a formulated oral dosage form in the absorptive regions of the GI tract.
Based on this approximation, pH 1.2 to pH 3 solutions were sampled weekly initially and sampling time corrections were made if necessary after the first 2 data points were collected.
Studies were conducted in pH 1-7 buffer solutions and at 5° C., 25° C., 30° C. and 37° C.

The conditions of data set [8]: rat, radioactive markers in urine.

Entries after “also recorded” stand apart in the source; their conditions may differ. Some results are limits rather than exact numbers.

With `C[C@H](O)[C@H](O)[C@H]1CNc2nc(N)[nH]c(=O)c2N1.Cl.Cl` [Polymorph K, (6R)-L-erythro-tetrahydrobiopterin dihydrochloride], the “water content adsorbed (hygroscopicity)” value in data set [1] is “about 2.0 percent by weight”.
Still for that read-out and setting: the value for `C[C@H](O)[C@H](O)[C@H]1CNc2nc(N)[nH]c(=O)c2N1.Cl.Cl` [Polymorph A, (6R)-L-erythro-tetrahydrobiopterin dihydrochloride] was “about 3 percent by weight”; that for `C[C@H](O)[C@H](O)[C@H]1CNc2nc(N)[nH]c(=O)c2N1.Cl.Cl` [Polymorph F, (6R)-L-erythro-tetrahydrobiopterin dihydrochloride] was “about 3 percent by weight”.
On to `C[C@H](O)[C@H](O)[C@H]1CNc2nc(N)[nH]c(=O)c2N1` [BH4, 6R-(L-erythro)-5,6,7,8-tetrahydrobiopterin], for which the “median and range for Tmax, dissolved vs intact tablets” value in data set [2] (10 mg/kg oral, fasted) is given as “essentially the same”. Moreover, the “upper limits of 90% confidence intervals of intact-to-dissolved ratios” value in data set [2] (10 mg/kg oral, fasted) is reported as “greater than 125%”. Besides, the “increase in the extent of absorption, intact tablet compared to dissolved tablet” value in data set [2] (10 mg/kg oral, healthy subjects) is listed as roughly 20%. For the same compound, the “average increase in Cmax and AUC, intact tablet relative to dissolved tablets” value in data set [2] (fasted conditions) amounted to 20%. The “increase in Cmax and AUC after a high fat/high calorie meal” value in data set [2] (intact tablet) was “approximately 30%”; in data set [2] (tablet dissolved in water) it was roughly 80%. For the same compound, the “median and range for Tmax, fed vs fasted conditions” value in data set [2] (intact tablet 10 mg/kg) is “essentially the same”. The “upper limits of 90% confidence intervals of fed-to-fasted ratios” value in data set [2] (intact tablet 10 mg/kg) is “greater than 125%”. The “BH4 absorbed in the gut” value in data set [3] is 8-11%. In addition, the solubility (usually the dissolved amount per volume that the medium holds) in data set [4] was greater than 1000 mg/mL. Moreover, the “ratio of reduced biopterin to total biopterins during the test period” value in data set [5] is on record as “nearly constant”. Also, the “study exit assessments, ECG and physical examination evaluations” value in data set [6] (human, in vivo) is “no clinically significant findings”. Besides, the “adverse events assessed as mild” value in data set [6] (of 9 AEs) is on record as 8 AEs. In addition, the “adverse events assessed as moderate in severity” value in data set [6] (of 9 AEs) was determined as 1 AEs. The “events judged possibly related to the study drug” value in data set [6] (of 9 AEs) stood at 4 events. For the same compound, in data set [6] (of 9 AEs), the “events judged unrelated to the study drug” value is “five”. Also, in data set [6] (single 10 mg/kg oral doses), the “subjects reporting adverse events” value was 5 subjects. In addition, in data set [6] (single 10 mg/kg oral doses), the “total adverse events reported” value worked out at 9 adverse events. In data set [6] (single 10 mg/kg oral doses, healthy subjects, 10 mg/kg), the “serious adverse events (SAEs)” value is on record as “no serious adverse events; also recorded: no AEs considered serious”. Also, the “dependence of rate of degradation of BH4” value in data set [7] is given as “concentration-dependent”. Also, the “effect of sparging on stability of BH4” value in data set [7] was “substantially enhanced the stability”. Besides, the “stability of BH4 at pH 3.1” value in data set [7] (1 mg/mL, pH 3.1) is “over 3 hours”. Moreover, the “Estimated t1/2 Based on t1/2 Obtained at pH 3 (Min)” value in data set [7] (pH 2) is recorded as 177690.0 (123.4 days) Min; in data set [7] (pH 3), 17769.0 (12.34 days) Min; in data set [7] (pH 4), 1776.9 (1.23 days) Min; in data set [7] (pH 5) it was 177.7 (0.12 days) Min; in data set [7] (pH 6), 17.7 (0.01 days) Min; in data set [7] (pH 7), 1.8 Min. Besides, the values for the half-life in data set [7] (pH 3), in data set [7] (pH 3.1) and in data set [7] (pH 6.8) were 12.3 days, 12.3 days and roughly 0.0104 days, respectively. Also, the “rate of GI absorption” value in data set [8] came to 8.8%.

The record behind these values is patent US7612073B2, “Methods of administering tetrahydrobiopterin, associated compositions, and methods of measuring” (Biomarin Pharmaceutical Inc., priority 2007, dated 2009).
